This is an account of results in article PMC8162404, “Proteomimetic surface fragments distinguish targets by function” (Chemical Science, 2020).

A word on the pKd: it is the negative decadic logarithm of the Kd, by convention in mol/L.

Experiment in all cases: Pull-down assay with immobilized protein and LSM libraries
One test has as its target T1, S100A4 (Homo sapiens, UniProt P26447).
T1 construct: made in house; host or cells: Escherichia coli BL21(DE3)
In kind it is binding. Particulars: 1:1 binding assumed, read-out: Surface mapping KD (apparent). The gist of the method:
(§1)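 Buffers were HEPES pH 7.4 with 150 mM NaCl, plus 1 mM TCEP and 1 mM CaCl2 (50 mM HEPES) for S100A4 and S100B, 1 mM TCEP for Gal-1, and no additive for RecQ-WH. Immobilized protein at 64 µM was equilibrated 30 min with the LSM sublibrary, and unbound probes were measured by LC-MS.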

The target of a further test is T2, Gal-1 (Homo sapiens, UniProt P09382).
T2 construct: made in house; host or cells: E. coli BL21(DE3)
T2 sequence (P09382 whole entry): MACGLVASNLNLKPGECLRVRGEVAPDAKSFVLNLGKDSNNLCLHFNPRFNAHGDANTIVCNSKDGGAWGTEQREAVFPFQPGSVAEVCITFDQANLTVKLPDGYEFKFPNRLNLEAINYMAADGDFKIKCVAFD
In kind it is binding. Particulars: 1:1 binding assumed, read-out: Surface mapping KD (apparent). The gist of the method: as §1

A further test concerns the target T3, CaM (Bos taurus, UniProt P62157).
T3 construct: made in house; host or cells: E. coli BL21 (DE3)
In kind it is binding, bovine. The gist of the method: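 CaM buffer was 20 mM HEPES pH 7.4, 150 mM NaCl, 5 mM CaCl2. LSM sublibrary members ([…]) incubated 30 min, RT, with equimolar His-tagged protein on Co-NTA resin. HPLC-MS measured unbound probes; bound fraction relative to resin-only background gave dissociation constants.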

Another test addresses T4, S100B (Homo sapiens, UniProt P04271).
T4 construct: made in house; host or cells: Escherichia coli BL21(DE3)
T4 sequence (P04271 1-92): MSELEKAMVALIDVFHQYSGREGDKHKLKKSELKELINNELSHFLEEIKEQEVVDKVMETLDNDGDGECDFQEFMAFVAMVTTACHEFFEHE
In kind it is binding. The note with it: 1:1 binding assumed, read-out: Surface mapping KD (apparent). The gist of the method: as §1

[1] abbreviates: H12 library, 1:2 stoichiometry assumed, read-out: Surface mapping KD (apparent).
[2] abbreviates: H14 library, 1:2 stoichiometry assumed, read-out: Surface mapping KD (apparent).

pKd: −log10 of the molar value. Like-named read-outs stand apart in the source and are kept apart here.

T1 sequence (P26447 whole entry): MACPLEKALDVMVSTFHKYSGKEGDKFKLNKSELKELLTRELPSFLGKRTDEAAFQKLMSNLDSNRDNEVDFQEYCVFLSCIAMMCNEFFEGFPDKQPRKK

Turning to `CC[C@H](C)[C@@H](CC(=O)N[C@H]1CCC[C@@H]1C(=O)N[C@H]1CCC[C@@H]1C(N)=O)NC(=O)[C@H]1CCC[C@@H]1NC(=O)[C@H]1CCC[C@@H]1NC(=O)C[C@H](CC(=O)O)NC(=O)[C@H]1CCC[C@@H]1NC(=O)[C@H]1CCC[C@@H]1N` [H12 DI], the pKd is 3.35 at S100A4 (H12 library) and 3.60 on Gal-1 (H12 library).

As for `CC(C)C[C@@H](CC(=O)N[C@H]1CCC[C@@H]1C(=O)N[C@H]1CCC[C@@H]1C(N)=O)NC(=O)[C@H]1CCC[C@@H]1NC(=O)[C@H]1CCC[C@@H]1NC(=O)C[C@H](CC(=O)O)NC(=O)[C@H]1CCC[C@@H]1NC(=O)[C@H]1CCC[C@@H]1N` [H12 DL], the pKd was 3.35 at S100A4 (H12 library) and 3.60 at Gal-1 (H12 library).

For the compound `CSCC[C@@H](CC(=O)N[C@H]1CCC[C@@H]1C(=O)N[C@H]1CCC[C@@H]1C(N)=O)NC(=O)[C@H]1CCC[C@@H]1NC(=O)[C@H]1CCC[C@@H]1NC(=O)C[C@H](Cc1ccccc1)NC(=O)[C@H]1CCC[C@@H]1NC(=O)[C@H]1CCC[C@@H]1N` [H12 FM], the pKd is 4.38 at CaM, 3.71 at S100A4 (H12 library) and 4.41 at S100B (H12 library).

Take `NC(=O)[C@H]1CCC[C@@H]1NC(=O)[C@H]1CCC[C@@H]1NC(=O)C[C@H](Cc1ccc(O)cc1)NC(=O)[C@H]1CCC[C@@H]1NC(=O)[C@H]1CCC[C@@H]1NC(=O)C[C@H](Cc1ccccc1)NC(=O)[C@H]1CCC[C@@H]1NC(=O)[C@H]1CCC[C@@H]1N` [H12 FY]: the results for the pKd on S100A4 (H12 library) and at S100B (H12 library) were 3.72 and 4.23, respectively.

In the case of `CSCC[C@@H](CC(=O)N[C@H]1CCC[C@@H]1C(=O)N[C@H]1CCC[C@@H]1C(=O)N[C@H](CC(=O)N[C@H]1CCC[C@@H]1C(=O)N[C@H]1CCC[C@@H]1C(N)=O)Cc1ccccc1)NC(=O)[C@H]1CCC[C@@H]1NC(=O)[C@H]1CCC[C@@H]1N` [H12 MF], the pKd at CaM (setting [1]) was 4.13; on S100A4 (H12 library), 3.52; at S100B (H12 library) it was 4.49.

Take `CSCC[C@@H](CC(=O)N[C@H]1CCC[C@@H]1C(=O)N[C@H]1CCC[C@@H]1C(=O)N[C@H](CC(=O)N[C@H]1CCC[C@@H]1C(=O)N[C@H]1CCC[C@@H]1C(N)=O)CC(C)C)NC(=O)[C@H]1CCC[C@@H]1NC(=O)[C@H]1CCC[C@@H]1N` [H12 ML]: the pKd was 4.01 at CaM (setting [1]), 3.61 at S100A4 (H12 library) and 4.09 at S100B (H12 library).

Regarding `N=C(N)NCCC[C@@H](CC(=O)N[C@H]1CCC[C@@H]1C(=O)N[C@H]1CCC[C@@H]1C(N)=O)NC(=O)[C@H]1CCC[C@@H]1NC(=O)[C@H]1CCC[C@@H]1NC(=O)C[C@H](CC(N)=O)NC(=O)[C@H]1CCC[C@@H]1NC(=O)[C@H]1CCC[C@@H]1N` [H12 NR], the pKd was 3.61 at S100A4 (H12 library) and 3.97 at S100B (H12 library).

For `NC(=O)C[C@@H](CC(=O)N[C@H]1CCC[C@@H]1C(=O)N[C@H]1CCC[C@@H]1C(=O)N[C@@H](CO)CC(=O)N[C@H]1CCC[C@@H]1C(=O)N[C@H]1CCC[C@@H]1C(N)=O)NC(=O)[C@H]1CCC[C@@H]1NC(=O)[C@H]1CCC[C@@H]1N` [H12 NS], the pKd was 4.00 on CaM (setting [1]) and 3.64 on S100A4 (H12 library).

For the compound `N=C(N)NCCC[C@@H](CC(=O)N[C@H]1CCC[C@@H]1C(=O)N[C@H]1CCC[C@@H]1C(=O)N[C@@H](CCCCN)CC(=O)N[C@H]1CCC[C@@H]1C(=O)N[C@H]1CCC[C@@H]1C(N)=O)NC(=O)[C@H]1CCC[C@@H]1NC(=O)[C@H]1CCC[C@@H]1N` [H12 RK], the pKd at CaM (setting [1]) was 3.48; at Gal-1 (H12 library), 3.64; at S100B (H12 library), 3.84.

Turning to `CC(C)[C@@H](CC(=O)N[C@H]1CCC[C@@H]1C(=O)N[C@H]1CCC[C@@H]1C(N)=O)NC(=O)[C@H]1CCC[C@@H]1NC(=O)[C@H]1CCC[C@@H]1NC(=O)C[C@H](CCCNC(=N)N)NC(=O)[C@H]1CCC[C@@H]1NC(=O)[C@H]1CCC[C@@H]1N` [H12 RV], the pKd at S100A4 (H12 library) was 3.37; on Gal-1 (H12 library), 3.65; on S100B (H12 library), 3.88.

On to `NC(=O)[C@H]1CCC[C@@H]1NC(=O)[C@H]1CCC[C@@H]1NC(=O)C[C@H](Cc1c[nH]c2ccccc12)NC(=O)[C@H]1CCC[C@@H]1NC(=O)[C@H]1CCC[C@@H]1NC(=O)C[C@H](CO)NC(=O)[C@H]1CCC[C@@H]1NC(=O)[C@H]1CCC[C@@H]1N` [H12 SW], for which the pKd on CaM (setting [1]) was 4.39; at Gal-1 (H12 library), 3.34; at S100B (H12 library), 3.94.

For `CC(C)[C@@H](CC(=O)N[C@H]1CCC[C@@H]1C(=O)N[C@H]1CCC[C@@H]1C(=O)N[C@@H](CCC(N)=O)CC(=O)N[C@H]1CCC[C@@H]1C(=O)N[C@H]1CCC[C@@H]1C(N)=O)NC(=O)[C@H]1CCC[C@@H]1NC(=O)[C@H]1CCC[C@@H]1N` [H12 VQ], the pKd on S100A4 (H12 library) was 3.30; on Gal-1 (H12 library), 3.36.

For the compound `C[C@@H](CC(=O)N[C@H]1CCC[C@@H]1C(=O)N[C@H]1CCC[C@@H]1C(N)=O)NC(=O)[C@H]1CCC[C@@H]1NC(=O)[C@H]1CCC[C@@H]1NC(=O)C[C@H](Cc1c[nH]c2ccccc12)NC(=O)[C@H]1CCC[C@@H]1NC(=O)[C@H]1CCC[C@@H]1N` [H12 WA], the pKd was 3.52 on CaM (setting [1]), 3.41 on Gal-1 (H12 library) and 4.22 at S100B (H12 library).

On to `C[C@@H](O)[C@@H](CC(=O)N[C@H]1CCC[C@@H]1C(=O)N[C@H]1CCC[C@@H]1C(N)=O)NC(=O)[C@H]1CCC[C@@H]1NC(=O)[C@H]1CCC[C@@H]1NC(=O)C[C@H](Cc1c[nH]c2ccccc12)NC(=O)[C@H]1CCC[C@@H]1NC(=O)[C@H]1CCC[C@@H]1N` [H12 WT], for which the values for the pKd on CaM (setting [1]), on Gal-1 (H12 library) and at S100B (H12 library) were 3.44, 3.35 and 4.25, respectively.

Turning to `CC[C@H](C)[C@@H](CC(=O)N[C@H]1CCC[C@@H]1C(=O)N[C@H]1CCC[C@@H]1C(N)=O)NC(=O)[C@H]1CCC[C@@H]1NC(=O)[C@H]1CCC[C@@H]1NC(=O)C[C@H](Cc1ccc(O)cc1)NC(=O)[C@H]1CCC[C@@H]1NC(=O)[C@H]1CCC[C@@H]1N` [H12 YI], the pKd is 3.55 at S100A4 (H12 library), 3.50 at Gal-1 (H12 library) and 4.19 on S100B (H12 library).

In the case of `CC(C)C[C@@H](CC(=O)N[C@H]1CCC[C@@H]1C(=O)N[C@H]1CCC[C@@H]1C(N)=O)NC(=O)[C@H]1CCC[C@@H]1NC(=O)[C@H]1CCC[C@@H]1NC(=O)C[C@H](Cc1ccc(O)cc1)NC(=O)[C@H]1CCC[C@@H]1NC(=O)[C@H]1CCC[C@@H]1N` [H12 YL], the figures for the pKd on S100A4 (H12 library), at Gal-1 (H12 library) and at S100B (H12 library) were 3.74, 3.40 and 4.09, respectively.

Consider `CSCC[C@@H](CC(=O)N[C@H]1CCC[C@@H]1C(=O)N[C@H]1CCC[C@@H]1C(N)=O)NC(=O)[C@H]1CCC[C@@H]1NC(=O)[C@H]1CCC[C@@H]1NC(=O)C[C@H](Cc1ccc(O)cc1)NC(=O)[C@H]1CCC[C@@H]1NC(=O)[C@H]1CCC[C@@H]1N` [H12 YM], for which the pKd at CaM (setting [1]) was 3.75; on Gal-1 (H12 library), 3.54; on S100B (H12 library) it was 3.99.

For `NC(=O)[C@H]1CCC[C@@H]1NC(=O)[C@H]1CCC[C@@H]1NC(=O)C[C@H](Cc1ccc(O)cc1)NC(=O)[C@H]1CCC[C@@H]1NC(=O)[C@H]1CCC[C@@H]1NC(=O)C[C@H](Cc1ccc(O)cc1)NC(=O)[C@H]1CCC[C@@H]1NC(=O)[C@H]1CCC[C@@H]1N` [H12 YY], the pKd was 3.35 on CaM (setting [1]), 3.61 on Gal-1 (H12 library) and 3.89 on S100B (H12 library).

Turning to `C[C@@H](CC(=O)N[C@H]1CCCC[C@@H]1C(N)=O)NC(=O)[C@H]1CCCC[C@@H]1NC(=O)[C@H]1CCCC[C@@H]1NC(=O)C[C@H](C)NC(=O)[C@H]1CCCC[C@@H]1N` [H14 AA], the figures for the pKd on CaM (setting [2]), on S100A4 (H14 library) and on Gal-1 (H14 library) were 3.40, 3.69 and 3.49, respectively.

Consider `C[C@@H](CC(=O)N[C@H]1CCCC[C@@H]1C(=O)N[C@H]1CCCC[C@@H]1C(=O)N[C@@H](CCCNC(=N)N)CC(=O)N[C@H]1CCCC[C@@H]1C(N)=O)NC(=O)[C@H]1CCCC[C@@H]1N` [H14 AR], for which the pKd was 3.90 at CaM (setting [2]), 3.46 at Gal-1 (H14 library) and 3.90 on S100B (H14 library).

Turning to `NC(=O)C[C@@H](CC(=O)N[C@H]1CCCC[C@@H]1C(N)=O)NC(=O)[C@H]1CCCC[C@@H]1NC(=O)[C@H]1CCCC[C@@H]1NC(=O)C[C@H](Cc1ccccc1)NC(=O)[C@H]1CCCC[C@@H]1N` [H14 FN], the figures for the pKd on CaM (setting [2]) and at S100A4 (H14 library) were 4.05 and 3.47, respectively.

In the case of `CC(C)C[C@@H](CC(=O)N[C@H]1CCCC[C@@H]1C(=O)N[C@H]1CCCC[C@@H]1C(=O)N[C@@H](CCC(=O)O)CC(=O)N[C@H]1CCCC[C@@H]1C(N)=O)NC(=O)[C@H]1CCCC[C@@H]1N` [H14 LE], the pKd on S100A4 (H14 library) was 3.37; at Gal-1 (H14 library), 3.33.

Turning to `NCCCC[C@@H](CC(=O)N[C@H]1CCCC[C@@H]1C(N)=O)NC(=O)[C@H]1CCCC[C@@H]1NC(=O)[C@H]1CCCC[C@@H]1NC(=O)C[C@H](CO)NC(=O)[C@H]1CCCC[C@@H]1N` [H14 SK], the pKd is 4.04 on CaM (setting [2]), 3.36 on Gal-1 (H14 library) and 3.74 at S100B (H14 library).

Regarding `NC(=O)[C@H]1CCCC[C@@H]1NC(=O)C[C@H](CCC(=O)O)NC(=O)[C@H]1CCCC[C@@H]1NC(=O)[C@H]1CCCC[C@@H]1NC(=O)C[C@H](Cc1ccc(O)cc1)NC(=O)[C@H]1CCCC[C@@H]1N` [H14 YE], the pKd at S100A4 (H14 library) is 3.43.
